Assays:
[1] = Solid stability experiment (high temperature, high humidity, high temperature and high humidity); format: physicochemical
Method: 4.1.1 Experimental objective: To investigate the physical and chemical stability of the crystal form of the compound under the conditions of high temperature, high humidity, as well as high temperature and high humidity, so as to provide a basis for crystal form screening and storage of the crystal form of the compound.
The content of the salt was determined by HPLC using the external standard method, and the change of relevant substances was calculated by using the chromatographic peak area normalization method.

[2] = Pharmacokinetic assay of the salt forms in rats (10 mg/kg); format: in vivo; conditions: SD rats; for exposure AUC and maximum plasma concentration Cmax compared with the free base: 10 mg/kg; for AUC(0-t) / MRT inf / half-life / Tmax / Cmax: male, rat, po, p.o. 10 mg/kg, plasma, vehicle 0.5% HPMC; for AUC(0-t): read-out: Area under curve AUC0-t; for MRT inf: read-out: Average residence time MRT0-∞; for half-life: read-out: Half life t1/2 (converted); for Tmax: read-out: Peak time tmax; for Cmax: read-out: Plasma concentration Cmax
Method: 2.3 Pharmacokinetic assay of the methanesulfonate in rats
2.3.1. Study objective: SD rats were used as test animals. The pharmacokinetic behavior of various salt forms of 2-(2-cyano-5-oxo-8-(trifluoromethyl)pyrazolo[1,5-a]pyrido[3,2-e]pyrimidin-4(5H)-yl)-N-(5-fluoropyridin-2-yl)acetamide was studied in rat body (plasma) by orally administration at a dose of 10 mg/kg.
2.3.2.4 Administration: After an overnight fast, male SD rats (3 rats per group) were administered p.o. with the test compound at a dose of 10 mg/kg and a volume of 10 mL/kg.
2.3.2.5 Sample collection: 0.2 mL of blood was taken from the jugular vein of the rat before administration and at 0, 0.5, 1, 2, 4, 6, 8 and 24 hours after administration. The samples were stored in EDTA-K2 tubes, and centrifuged for 6 minutes at 4° C., 6000 rpm to separate the plasma. The plasma samples were stored at −80° C.
1) 160 μL of acetonitrile was added to 40 μL of the plasma sample for precipitation, and then the mixture was centrifuged at 3500×g for 5 to 20 minutes.
2) After the above process, 100 μL of the supernatant was taken to analyze the concentration of the test compound by LC/MS/MS.
2.3.2.7 Liquid chromatography analysis • Liquid chromatography condition: Shimadzu LC-20AD pump • Mass spectrometry condition: AB Sciex API 4000 mass spectrometer • Chromatographic column: phenomenex Gemiu 5 um C18 50×4.6 mm • Mobile phase: Eluent A was 0.1% formic acid in water, and Eluent B was acetonitrile • Flow rate: 0.8 mL/min • Elution time: 0-4.0 minutes, the eluent is as follows:
The main parameters of pharmacokinetics were calculated by WinNonlin 8.2.

[3] = Hygroscopicity experiment (DVS); format: physicochemical; conditions: 25° C.
Excerpt: 7.1 Hygroscopicity experiment of crystal forms of different salts of compound 2-(2-cyano-5-oxo-8-(trifluoromethyl)pyrazolo[1,5-a]pyrido[3,2-e]pyrimidin-4(5H)-yl)-N-(5-fluoropyridin-2-yl)acetamide
7.1.1 Experimental objective: To investigate the hygroscopicity of crystal forms of different salts of compound 2-(2-cyano-5-oxo-8-(trifluoromethyl)pyrazolo[1,5-a]pyrido[3,2-e]pyrimidin-4(5H)-yl)-N-(5-fluoropyridin-2-yl)acetamide at different relative humidity, so as to provide a basis for storage.
7.1.2 Experimental protocol: Crystal forms of different salts of the compound were placed in saturated water vapor with different relative humidity to achieve dynamic equilibrium between the compound and water vapor, and the percentage of hygroscopic weight gain of the compound after equilibrium was calculated.

[4] = High humidity (92.5% RH), Day 7
[5] = High humidity (92.5% RH), Day 14
[6] = High temperature (60° C.), Day 7
[7] = High temperature (60° C.), Day 14
[8] = High temperature and high humidity (50° C.&75% RH), Day 7
[9] = High temperature and high humidity (50° C.&75% RH), Day 14
[10] = Cycle 1, target relative humidity 0.0%
[11] = Cycle 1, target relative humidity 10.0%
[12] = Cycle 1, target relative humidity 20.0%
[13] = Cycle 1, target relative humidity 30.0%
[14] = Cycle 1, target relative humidity 40.0%
[15] = Cycle 1, target relative humidity 50.0%
[16] = Cycle 1, target relative humidity 60.0%
[17] = Cycle 1, target relative humidity 70.0%
[18] = Cycle 1, target relative humidity 80.0%
[19] = Cycle 1, target relative humidity 90.0%
[20] = Cycle 1, target relative humidity 95.0%
[21] = Cycle 2, target relative humidity 0.0%
[22] = Cycle 2, target relative humidity 10.0%
[23] = Cycle 2, target relative humidity 20.0%
[24] = Cycle 2, target relative humidity 30.0%
[25] = Cycle 2, target relative humidity 40.0%
[26] = Cycle 2, target relative humidity 50.0%
[27] = Cycle 2, target relative humidity 60.0%
[28] = Cycle 2, target relative humidity 70.0%
[29] = Cycle 2, target relative humidity 80.0%
[30] = Cycle 2, target relative humidity 90.0%
[31] = Cycle 2, target relative humidity 95.0%

N#Cc1cc2n(CC(=O)Nc3ccc(F)cn3)c(=O)c3ccc(C(F)(F)F)nc3n2n1.O=S(=O)(O)O [Sulfate (crystal form B), 2-(2-cyano-5-oxo-8-(trifluoromethyl)pyrazolo[1,5-a]pyrido[3,2-e]pyrimidin-4(5H)-yl)-N-(5-fluoropyridin-2-yl)acetamide sulfate]
solid stability under high humidity ([1]; 92.5% RH, 7 and 14 days): stable | % increase of total impurities [1, 4]: <0.1% | % maximum increase of single impurity [1, 4]: <0.1% | % increase of total impurities [1, 5]: <0.1% | % maximum increase of single impurity [1, 5]: <0.1% | % increase of total impurities [1, 6]: >0.2% | % maximum increase of single impurity [1, 6]: <0.1% | % increase of total impurities [1, 7]: >0.4% | % maximum increase of single impurity [1, 7]: >0.1% | % increase of total impurities [1, 8]: >0.2% | % maximum increase of single impurity [1, 8]: >0.1% | % increase of total impurities [1, 9]: >0.2% | % maximum increase of single impurity [1, 9]: >0.1% | exposure AUC and maximum plasma concentration Cmax compared with the free base [2]: superior | AUC(0-t) [2]: 21600 ng·h/mL | MRT inf [2]: 4.6 h | half-life [2]: 2.8 h | Tmax [2]: 2 h | Cmax [2]: 3080 ng/mL | % percentage of mass change, Desorption [3, 10]: −0.027% | % percentage of mass change, Sorption [3, 10]: −0.002% | % percentage of mass change, Desorption [3, 11]: 0.087% | % percentage of mass change, Sorption [3, 11]: 0.099% | % percentage of mass change, Desorption [3, 12]: 0.168% | % percentage of mass change, Sorption [3, 12]: 0.171% | % percentage of mass change, Desorption [3, 13]: 0.250% | % percentage of mass change, Sorption [3, 13]: 0.236% | % percentage of mass change, Desorption [3, 14]: 0.341% | % percentage of mass change, Sorption [3, 14]: 0.303% | % percentage of mass change, Desorption [3, 15]: 0.456% | % percentage of mass change, Sorption [3, 15]: 0.376% | % percentage of mass change, Desorption [3, 16]: 0.540% | % percentage of mass change, Sorption [3, 16]: 0.455% | % percentage of mass change, Desorption [3, 17]: 0.652% | % percentage of mass change, Sorption [3, 17]: 0.552% | % percentage of mass change, Desorption [3, 18]: 0.777% | % percentage of mass change, Sorption [3, 18]: 0.691% | % percentage of mass change, Desorption [3, 19]: 1.118% | % percentage of mass change, Sorption [3, 19]: 1.010% | % percentage of mass change, Desorption [3, 20]: 1.608% | % percentage of mass change, Sorption [3, 20]: 1.608% | % percentage of mass change, Desorption [3, 21]: −0.051% | % percentage of mass change, Sorption [3, 21]: −0.027% | % percentage of mass change, Desorption [3, 22]: 0.065% | % percentage of mass change, Sorption [3, 22]: 0.070% | % percentage of mass change, Desorption [3, 23]: 0.149% | % percentage of mass change, Sorption [3, 23]: 0.147% | % percentage of mass change, Desorption [3, 24]: 0.230% | % percentage of mass change, Sorption [3, 24]: 0.218% | % percentage of mass change, Desorption [3, 25]: 0.322% | % percentage of mass change, Sorption [3, 25]: 0.287% | % percentage of mass change, Desorption [3, 26]: 0.422% | % percentage of mass change, Sorption [3, 26]: 0.369% | % percentage of mass change, Desorption [3, 27]: 0.529% | % percentage of mass change, Sorption [3, 27]: 0.450% | % percentage of mass change, Desorption [3, 28]: 0.632% | % percentage of mass change, Sorption [3, 28]: 0.545% | % percentage of mass change, Desorption [3, 29]: 0.761% | % percentage of mass change, Sorption [3, 29]: 0.682% | % percentage of mass change, Desorption [3, 30]: 1.087% | % percentage of mass change, Sorption [3, 30]: 1.007% | % percentage of mass change, Desorption [3, 31]: 1.618% | % percentage of mass change, Sorption [3, 31]: 1.618%

Br.N#Cc1cc2n(CC(=O)Nc3ccc(F)cn3)c(=O)c3ccc(C(F)(F)F)nc3n2n1 [Hydrobromide (crystal form B), 2-(2-cyano-5-oxo-8-(trifluoromethyl)pyrazolo[1,5-a]pyrido[3,2-e]pyrimidin-4(5H)-yl)-N-(5-fluoropyridin-2-yl)acetamide hydrobromide]
exposure AUC and maximum plasma concentration Cmax compared with the free base [2]: superior | AUC(0-t) [2]: 16800 ng·h/mL | MRT inf [2]: 4.4 h | half-life [2]: 2.6 h | Tmax [2]: 1 h | Cmax [2]: 2470 ng/mL | % percentage of mass change, Desorption [3, 14]: 4.247% | % percentage of mass change, Sorption [3, 14]: 4.140% | % percentage of mass change, Desorption [3, 15]: 4.359% | % percentage of mass change, Sorption [3, 15]: 4.233% | % percentage of mass change, Desorption [3, 16]: 4.448% | % percentage of mass change, Sorption [3, 16]: 4.321% | % percentage of mass change, Desorption [3, 17]: 4.532% | % percentage of mass change, Sorption [3, 17]: 4.415% | % percentage of mass change, Desorption [3, 18]: 4.627% | % percentage of mass change, Sorption [3, 18]: 4.529% | % percentage of mass change, Desorption [3, 19]: 4.787% | % percentage of mass change, Sorption [3, 19]: 4.715% | % percentage of mass change, Desorption [3, 20]: 4.947% | % percentage of mass change, Sorption [3, 20]: 4.947% | % percentage of mass change, Desorption [3, 21]: −0.019% | % percentage of mass change, Sorption [3, 21]: −0.007% | % percentage of mass change, Desorption [3, 22]: 0.124% | % percentage of mass change, Sorption [3, 22]: 0.070% | % percentage of mass change, Desorption [3, 23]: 0.220% | % percentage of mass change, Sorption [3, 23]: 0.153% | % percentage of mass change, Desorption [3, 24]: 3.962% | % percentage of mass change, Sorption [3, 24]: 3.900% | % percentage of mass change, Desorption [3, 25]: 4.112% | % percentage of mass change, Sorption [3, 25]: 4.030%

From patent publication US20240376108A1, “SALT AND CRYSTAL FORM OF PYRAZOLE-CONTAINING POLYCYCLIC DERIVATIVE, AND PREPARATION METHOD THEREFOR AND USE THEREOF” (Shanghai Hansoh Biomedical Co., Ltd., priority 2021, published 2024)
